Earlier results as cited in patent US20050142187A1, “Enhanced absorption of modified release dosage forms” (priority 2003, published 2005).

Window of absorption (known in the art, "or less"): 3 to 4 h
Compound: CC1(C)S[C@@H]2[C@H](NC(=O)[C@H](N)c3ccc(O)cc3)C(=O)N2[C@H]1C(=O)O [Amoxicillin, amoxicillin]
Food effect (current scientific literature): either a negligible or a negative food effect
